Values of other authors, collected in patent publication US9505976B2, “Excitation-dependent fluorescent organic nanoparticles” (National Kaohsiung Normal University, priority 2013, dated 2016).

Conditions: in ethanol

In the case of `CCN(CC)c1ccc2c(C)cc(=O)oc2c1` [coumarin 1, 7-diethylamino-4-methylcoumarin], the “quantum yield of reference” value is given as 73%.
